# Data from US10246733B2, “Assay and method for quantitating carbonic anhydrase activity and assessing red blood hemolysis” (CASE WESTERN RESERVE UNIVERSITY, priority 2015, dated 2019).
# Legend:
# [1] = system: intact RBCs and hemolysate released CA; assay: Stopped-flow out-of-equilibrium CA assay on mixtures of intact and hemolyzed mouse RBCs; format: biochemical
# Description: (§1) [drawing 3] causing pH to rise exponentially.
# (§2) Adult C57/BL6 mice (8 to 16 weeks old) were sacrificed by cervical dislocation and blood was immediately collected by cardiac puncture using a 1-mL syringe (Becton, Dickinson and Co., Franklin Lakes, N.J., USA) with a 23 gauge PrecisionGlide needle (Becton, Dickinson and Co.). Prior to blood collection the syringe and needle were rinsed with 0.9% sodium heparin (H4784, Sigma-Aldrich). The blood was transferred to a 1.5-mL microcentrifuge tube, centrifuged in a Beckman Microfuge 16 Microcentrifuge (Beckman, Brea, Calif.) at 600×g for 10 min and the resulting supernatant and buffy coat were removed. To remove any residual extracellular Hb, the pelleted red blood cells (RBCs) were resuspended—in solution A to a 10% hematocrit (Hct)—and centrifuged at 600×g for 5 minutes. This process was repeated 4×. After the final wash the RBCs were resuspended in solution A to a final Hct of ˜20% to ˜30%.
# (§3) A solution of isolated Hb was obtained by osmotic lysis of 20 μL of freshly prepared mouse RBCs (see above) in pure H2O (1:8 dilution), followed by centrifugation at 15000×g for 5 minutes in a Beckman Microfuge 16 Microcentrifuge, at RT room temperature. This centrifugation step separated the cellular debris from the Hb containing supernatant. The supernatant (cleared of cellular debris) then was removed and transferred to a clean 1.5 mL Eppendorf tube for a The Hb concentration of the supernatant was spectroscopic determination of [Hb] using the visible absorbance spectroscopy as described above.
# Simulated degrees of hemolysis (0-up to 100%) were achieved by mixing different proportions of freshly prepared, ostensibly “intact” RBCs and a lysate (representing 100% lysis), while maintaining the total Hb concentration at 5 μM (Table 2). For example, the mixture simulating ostensibly 0% hemolysis contained 5 μM Hb from RBCs. The mixture simulating ostensibly 50% hemolysis contained 2.5 μM Hb from RBCs and 2.5 μM Hb from the lysate supernatant (added to the RBC mixture in a dilution of ˜1:400 to ˜1:4000, depending on the [Hb]). […]
# hemolysate released CA = assay: Stopped-flow out-of-equilibrium CA assay on mouse hemolysate; format: biochemical
# Description: as §1
# as §2, with “After the final wash the RBCs were resuspended in solution A to a final Hct of ˜20% to ˜30%.” left out
# as §3, with “This centrifugation step separated the cellular debris from the Hb containing supernatant.” left out, “above. […]” for “above.”
# [2] = cited from earlier work
# [3] = Calibration of pH indicator dye (pK from fluorescence-excitation ratio titration curve); format: physicochemical; conditions: 10° C., five sets of experiments, ± SD
# Protocol: We calibrated the pH indicator dye pyranine at 10° C. by mixing in the SF device two identical solutions that were either the pH-7.50 “pH calibration solution for dye” listed in (Table 1), or variants thereof obtained by titrating the pH as outlined in a footnote to (Table 1). For each pH value X, we computed (I460/I415)pHx as described in the previous section. We fitted the following theoretical titration curve to our experimental data:
# [formula] which normalizes the data to the value observed at pH 7.5, and forces the function to have a value of unity at this pH.
# We used an iterative non-linear least-squares method to determine b and pK. […] The best-fit values were 7.11±0.01 (SD) for the pK, and 1.39±0.01(SD) for b. We used these values of pK and b and the values for ratio of (I460/I415) in each experiment to calculate pH.
SMILES,extracellular CA enzyme activity with ACZ ([1]; 10 μM ACZ in syringe opposite to RBCs),"krx (rate constant of HCO3- + H+ -> CO2 + H2O reaction) in presence of ACZ ([1]; 10 μM ACZ in syringe opposite to RBCs (5%-100% hemolysis of RBCs), 10° C., reduced to the uncatalyzed value) [s-^1]",time for pHo to reach ~7.5 with ACZ ([1]; ACZ in solution opposite to RBCs (FIG. 4D)) [s],"krx (rate constant of HCO3- + H+ -> CO2 + H2O reaction) in presence of ACZ (hemolysate released CA; 10 μM ACZ in syringe opposite to hemolysate (5%-100% relative amount), 10° C., reduced to the uncatalyzed value) [s-^1]",time for pHo to reach ~7.5 with ACZ (hemolysate released CA; ACZ in solution opposite to hemolysate (FIG. 3D)) [s],PKa in previous study [2],pK (best-fit value) [3]
"CC(=O)Nc1nnc(S(N)(=O)=O)s1 [ACZ, acetazolamide]",totally blocked,~0.02,~200,~0.02,~200,,
O=S(=O)([O-])c1cc(O)c2ccc3c(S(=O)(=O)[O-])cc(S(=O)(=O)[O-])c4ccc1c2c34.[Na+].[Na+].[Na+] [pyranine],,,,,,around 7.3,7.11±0.01
